Assay [1] concerns the target T1, panel of 442 kinases (Homo sapiens, UniProt Q8NFD2).
T1 construct: purchased KINOMEscan
T1 sequence (Q8NFD2 1-765): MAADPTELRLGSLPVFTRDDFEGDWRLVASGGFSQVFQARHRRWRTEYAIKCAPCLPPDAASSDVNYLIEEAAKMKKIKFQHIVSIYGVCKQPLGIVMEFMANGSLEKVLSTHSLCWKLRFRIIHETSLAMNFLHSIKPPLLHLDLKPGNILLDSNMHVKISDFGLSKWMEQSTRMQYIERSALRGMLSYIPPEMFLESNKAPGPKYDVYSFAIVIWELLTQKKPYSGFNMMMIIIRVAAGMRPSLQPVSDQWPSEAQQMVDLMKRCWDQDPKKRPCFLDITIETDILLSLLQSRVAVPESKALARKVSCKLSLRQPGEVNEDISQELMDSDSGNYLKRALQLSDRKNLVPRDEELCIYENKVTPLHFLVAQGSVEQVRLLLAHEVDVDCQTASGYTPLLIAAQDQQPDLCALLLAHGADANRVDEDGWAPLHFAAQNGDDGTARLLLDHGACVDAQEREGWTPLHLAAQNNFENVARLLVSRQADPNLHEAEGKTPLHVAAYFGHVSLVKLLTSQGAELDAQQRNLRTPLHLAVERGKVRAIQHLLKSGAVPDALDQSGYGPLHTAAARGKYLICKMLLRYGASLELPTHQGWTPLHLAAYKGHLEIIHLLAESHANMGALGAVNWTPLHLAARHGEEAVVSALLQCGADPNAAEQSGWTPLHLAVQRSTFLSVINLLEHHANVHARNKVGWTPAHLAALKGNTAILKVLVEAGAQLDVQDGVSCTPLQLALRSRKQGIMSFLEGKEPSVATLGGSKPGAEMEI
Type of assay: binding. The conditions noted are these: Compound Concentration 10 µM. The text has this: (§1) We assessed the selectivity of members of this scaffold using the KINOMEscan methodology across a near comprehensive panel of 442 kinases [[18,27]].

The target of assay [2] is T2, panel of 442 kinases (Homo sapiens, UniProt P43403).
T2 construct: purchased KINOMEscan
T2 sequence (P43403 1-619): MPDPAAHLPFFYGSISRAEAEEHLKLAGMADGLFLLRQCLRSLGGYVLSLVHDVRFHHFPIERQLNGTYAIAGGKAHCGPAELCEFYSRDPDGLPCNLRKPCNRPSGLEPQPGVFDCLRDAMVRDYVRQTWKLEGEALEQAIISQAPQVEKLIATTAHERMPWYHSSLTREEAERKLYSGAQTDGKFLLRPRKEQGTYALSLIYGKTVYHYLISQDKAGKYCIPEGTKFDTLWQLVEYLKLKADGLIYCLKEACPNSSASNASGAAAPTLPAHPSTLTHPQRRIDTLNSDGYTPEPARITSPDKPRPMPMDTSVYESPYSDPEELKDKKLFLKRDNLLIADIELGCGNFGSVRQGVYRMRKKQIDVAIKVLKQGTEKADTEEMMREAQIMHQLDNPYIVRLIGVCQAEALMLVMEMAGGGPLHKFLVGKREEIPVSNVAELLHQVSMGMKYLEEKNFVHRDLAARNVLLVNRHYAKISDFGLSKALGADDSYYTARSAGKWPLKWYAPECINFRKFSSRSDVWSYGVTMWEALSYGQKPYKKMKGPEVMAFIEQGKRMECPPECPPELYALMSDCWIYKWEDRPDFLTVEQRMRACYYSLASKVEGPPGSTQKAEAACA
It is filed as binding. The conditions noted are these: kinase ZAP70; compound concentration 10 µM.
Source text: as §1

Consider `COc1cc(C(=O)N2CCC(N3CCN(C)CC3)CC2)ccc1Nc1ncc2c(n1)N(C)c1ccccc1C(=O)N2C` [15 (LRRK2-IN-1)], for which the “KINOMEscan: ANKK1” value in assay [1] was 100. Besides, in assay [2], the “% Ctrl, ZAP70” value worked out at 79 % Ctrl.

Take `COc1cc(C(=O)N2CCC(N3CCN(C)CC3)CC2)ccc1Nc1ncc2c(n1)N1CCc3cccc(c31)C(=O)N2C` [Compound 24]: the “% Ctrl, ZAP70” value in assay [2] was determined as 100 % Ctrl.

On to `COc1cc(C(=O)N2CCC(N3CCN(C)CC3)CC2)ccc1Nc1ncc2c(n1)N(C1CCCC1)c1ccccc1C(=O)N2C` [Compound 25, 11-cyclopentyl-2-((2-methoxy-4-(4-(4-methylpiperazin-1-yl)piperidine-1-carbonyl)phenyl)amino)-5-methyl-5H-benzo[e]pyrimido[5,4-b][1,4]diazepin-6(11H)-one], for which, in assay [1], the “KINOMEscan: ANKK1” value came out at 85. For the same molecule, the “% Ctrl, ZAP70” value in assay [2] is on record as 79 % Ctrl. For `CCOc1cc(C(=O)N2CCC(N3CCN(C)CC3)CC2)ccc1Nc1ncc2c(n1)N(C1CCCC1)c1ccccc1C(=O)N2C` [Compound 26] the same measures were 84 and 90 % Ctrl.

Values taken from PMC3914206.
